Test results published in patent publication US12268798B2, “Method for screening of unpleasant odor masking agents” (Takasago International Corporation, priority 2020, dated 2025).

How the values were obtained:
olfactory receptor OR2L3 [1] = molecular target: T1, olfactory receptor OR2L3 (Homo sapiens, UniProt Q8NG85); assay: Luciferase reporter gene assay: response of olfactory receptor OR2L3 to unpleasant odor-causing substance; format: cell-based; details: various concentrations; HEK293T cells expressing OR2L3; FIGS. 1 to 5
T1 construct: N-terminal 20 amino acid residues of bovine rhodopsin (Rho tag); expressed in transfected cells; host or cells: HEK293T cells, transient lipofection with the pME18S expression vector, an RTP1S vector and the luciferase reporter vectors
T1 sequence (Q8NG85 1-312): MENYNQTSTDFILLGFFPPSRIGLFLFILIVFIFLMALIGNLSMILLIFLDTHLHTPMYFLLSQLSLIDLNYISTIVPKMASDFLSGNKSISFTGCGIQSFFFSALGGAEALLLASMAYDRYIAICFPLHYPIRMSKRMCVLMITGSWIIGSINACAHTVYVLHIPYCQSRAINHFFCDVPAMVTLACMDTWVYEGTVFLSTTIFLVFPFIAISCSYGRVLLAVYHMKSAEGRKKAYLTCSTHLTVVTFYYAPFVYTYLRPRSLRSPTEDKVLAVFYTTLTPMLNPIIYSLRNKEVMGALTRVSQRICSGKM
Method: A human olfactory receptor gene was obtained by cloning according to the PCR method using Human Genomic DNA: Female (Promega) based on the sequence information registered in GenBank. The N-terminal 20 amino acid residues of bovine rhodopsin were incorporated into a pME18S vector, and the obtained human olfactory receptor gene was further incorporated downstream thereof, thereby obtaining a human olfactory receptor gene expression vector.
(§1) 0.05 μg of the human olfactory receptor gene expression vector, 0.01 μg of an RTP1S vector, 0.01 μg of a firefly luciferase vector pGL4.29 containing a cAMP-responsive sequence promoter (Promega), and 0.005 μg of a Renilla luciferase vector pGL4.74 containing a thymidine kinase promoter (Promega) were dissolved in 10 μL of Opti-MEM I (gibco) to obtain a gene solution (for one well). 100 μL of HEK293T cells were seeded in each well of a 96-well plate (Biocoat manufactured by Corning) so as to reach confluency after 24 hours. According to the directions for use of Lipofectamine 3000, by the lipofection method, the gene solution was added to each well to perform gene transfer to cells, and culturing was performed under 5% carbon dioxide atmosphere at 37° C. for 24 hours.
(§2) After removing the culture medium, 50 μL of CD293 medium (gibco) (20 μM L-glutamine added) including measured concentration of an aroma compound as a sample was added to each well, and stimulation was performed for 3 hours. After that, the luciferase activity was measured according to the directions for use of Dual-Luciferase Reporter Assay System (Promega). The response strength of the olfactory receptor was expressed by the Fold Increase value, which is obtained by dividing the luciferase activity generated by stimulation of the aroma compound by the luciferase activity generated in the test system not including the aroma compound.
(§3) Responses of the olfactory receptor OR2L3 to skatole, indole, α-terpineol, 4-terpineol or p-methylacetophenone as a typical example of the unpleasant odor-causing substance were measured with various concentrations by means of luciferase reporter gene assay. […] Meanwhile, in the Mock test (using cells in which OR2L3 was not expressed), no response was shown. That is, it was shown that OR2L3 specifically responds to the respective unpleasant odor-causing substances.

[2] = system: HEK293T cells in which OR2L3 was not expressed (Mock); assay: Mock test, luciferase reporter gene assay using cells in which OR2L3 was not expressed; format: cell-based, human
Method: as §1, §2, §3

olfactory receptor OR2L3 [3] = molecular target: T1, olfactory receptor OR2L3; assay: Luciferase reporter gene assay: effect of suppressing the response of OR2L3 to unpleasant odor-causing substance; format: cell-based; details: for Effect of suppressing the response of OR2L3 to skatole: test substance mixed with skatole, ratio of Fold Increase value, FIGS. 6 to 9; for Effect of suppressing the response of OR2L3 to indole: test substance mixed with indole, FIGS. 10 to 12
Method: as §1
as §2, with “compound. […]” for “compound.”
With respect to unpleasant odor masking agents (group of candidate substances) including Group A shown in Table 1, the effects of suppressing the response of OR2L3 that strongly responded to unpleasant odors were measured by means of luciferase reporter gene assay.
In luciferase reporter gene assay, skatole and Guava coeur (Ethyl 3-mercapto-2-methylbutyrate) were used by being mixed with a sample. The Fold Increase value in the test in which Guava coeur was not mixed was regarded as 1, and the ratio of the Fold Increase value in the test in which Guava coeur was mixed was obtained.
Guava coeur in the evaluation of the effect of suppressing the response of OR2L3 was replaced by Dextramber® (1-(2,2,6-trimethylcyclohexyl) hexan-3-ol, registered trademark), and the test was conducted in the same manner. […] Similarly, Guava coeur was replaced by Hindinol® (2-methyl-4-(2,2,3-trimethyl-3-cyclopentenyl)-2-buten-1-ol, registered trademark) and the test was conducted.
Regarding the unpleasant odor in the evaluation of the effect of suppressing the response of OR2L3, skatole was replaced by indole, and the test was conducted in the same manner. […]

skatole odor = assay: Sensory evaluation of unpleasant odor suppression ability (skatole), panel of 20 persons; format: in vivo, human; details: for Skatole strength: average rating of 20 persons, scale 0 to 10, unpleasant odor alone rated 8, 10 μL skatole diluted 100-fold plus 1 μL test substance, 1 hour at room temperature; for Effect of suppressing the unpleasant odors (in words): unpleasant odors = skatole or indole
Method: (§4) The unpleasant odor suppression ability of test substances having activity to inhibit receptor action was confirmed by sensory evaluation. A cotton ball on which 10 μL of skatole or indole diluted 100-fold with triethyl citrate as an unpleasant odor and 1 μL of a test substance were dropped was put into a plastic bottle (OZO-40 manufactured by Takemoto Yohki Co., Ltd.). The bottle was allowed to stand at room temperature for 1 hour to sufficiently volatilize odor molecules therein. The sensory evaluation test was conducted by a panel consisting of 20 persons, who made evaluation as follows: the odor strength in the case where the unpleasant odor was dropped solely was rated as 8, and the unpleasant odor strength in the case where the test substance was mixed was rated as from 0 (the unpleasant odor is not smelled) to 10 (the unpleasant odor is smelled very strongly). The average value was calculated from obtained numerical values.

indole odor = assay: Sensory evaluation of unpleasant odor suppression ability (indole), panel of 20 persons; format: in vivo, human; details: for Indole strength: average rating of 20 persons, scale 0 to 10, unpleasant odor alone rated 8, 10 μL indole diluted 100-fold plus 1 μL test substance, 1 hour at room temperature
Method: as §4

Row | Molecule | Response of the olfactory receptor OR2L3 (Fold Increase) (olfactory receptor OR2L3 [1]) | Response in the Mock test [2] | Effect of suppressing the response of OR2L3 to skatole (olfactory receptor OR2L3 [3]) | Skatole strength (skatole odor) | Effect of suppressing the unpleasant odors (in words) (skatole odor; sensory evaluation) | Indole strength (indole odor) | also measured
1 | Cc1c[nH]c2ccccc12 [skatole] | concentration-dependent responses | no response |  |  |  |  | 
2 | CC/C=C\CCOC(=O)CCCCC [cis-3-hexenyl hexanoate, reference compound] |  |  | concentration-dependently reducing |  |  |  | 
3 | CC(c1ccccc1)C1CC1C(C)(C)O (stereo not shown) [Dimethyl-2-(1-phenylethyl)cyclopropylmethanol] |  |  |  | 2.5 | suppress | 2.4 | 
4 | c1ccc2[nH]ccc2c1 [indole] | concentration-dependent responses | no response |  |  |  |  | 
5 | CC(C)(C)C1CCC(O)CC1 (stereo not shown) [4-t-butyleyclohexanol, 4-t-butylcyclohexanol, reference compound] |  |  | did not suppress | 6.3 |  | 6.0 | 
6 | CCCCCCOC(=O)c1ccccc1O [Hexyl salicylate, hexyl salicylate, reference compound] |  |  | did not suppress | 6.9 |  | 6.7 | 
7 | CC(=O)c1ccc(C)cc1 [p-methylacetophenone] | concentration-dependent responses | no response |  |  |  |  | 
8 | CCOC(=O)C(C)C(C)S (stereo not shown) [Ethyl 3-mercapto-2-methylbutyrate] |  |  | concentration-dependently reducing | 3.0 | suppress | 3.3 | Effect of suppressing the response of OR2L3 to indole (olfactory receptor OR2L3 [3]): concentration-dependently reducing
9 | CC1=CCC(O)(C(C)C)CC1 (stereo not shown) [4-terpineol] | concentration-dependent responses | no response |  |  |  |  | 
10 | Methyl fenchol |  |  | suppresses | 3.3 |  | 3.1 | Suppression of the strength of skatole odor (in words) (skatole odor; sensory evaluation): significantly suppressed; Suppression of the strength of indole odor (in words) (indole odor; sensory evaluation): suppressed
11 | CC1=CCC(C(C)(C)O)CC1 (stereo not drawn) [α-terpineol] | concentration-dependent responses | no response |  |  |  |  | 
12 | O=C1CCCC=CCCCCCCCCCC1 [5-cyclohexadecenone] |  |  |  | 4.2 | suppress | 3.6 | 
13 | CCCC(O)CCC1C(C)CCCC1(C)C (stereo not shown) [1-(2,2,6-trimethylcyclohexyl)hexan-3-ol] |  |  | concentration-dependently reducing | 4.0 | suppress | 3.9 | Effect of suppressing the response of OR2L3 to indole (olfactory receptor OR2L3 [3]): concentration-dependently reducing
14 | CC(=CCC1CC=C(C)C1(C)C)CO (stereo not shown) [2-methyl-4-(2,2,3-trimethyl-3-cyclopentenyl)-2-buten-1-ol] |  |  | concentration-dependently reducing | 3.6 | suppress | 4.1 | Effect of suppressing the response of OR2L3 to indole (olfactory receptor OR2L3 [3]): concentration-dependently reducing
15 | CC1CCC(C(C)(C)S)C(=O)C1 (stereo not shown) [p-mentha-8-thio1-3-one, p-mentha-8-thiol-3-one] |  |  |  | 3.9 | suppress | 3.7 | 
